According to patent US6956040B2, “Oxazolidinone piperazinyl derivatives as potential antimicrobials” (Ranbaxy Laboratories Limited, priority 2001, dated 2005):
Values after ≈ are worked out from the molar mass of the structure shown.

Experiments:
Assay in all cases: MIC, agar incorporation method
MRSA 15187 = assay type: cell-based, Staphylococcus aureus; details: MRSA 15187; agar incorporation
Excerpt: (§1) The compounds of the invention display antibacterial activity when tested by the agar incorporation method. The following minimum inhibitory concentrations (μg/ml) were obtained for representative compounds of the invention which are given below in the following tables.
(§2) • 1) S.aureus ATCC 25923—Staphylococus aureus ATCC 25923 • 2) MRSA 15187—Methicillin Resistant Staphylococcus aureus • 3) Ent. faecalis ATCC 29212—Enterococcus faecalis ATCC 29212 • 4) Ent. faecium 6A—Enterococcus faecium 6A Van®, Cipro® • 5) Strep. pne. ATCC 6303—Streptococcus pneumoniae ATCC 6303 • 6) Strep. pyog. ATCC 19615—Streptococcus pyogenes • 7) S. epidermidis—Staphylococcus epidermidis ATCC 12228
(§3) Briefly, the compounds were dissolved in DMSO and doubling dilution of the compounds were incorporated into Meuller Hilton agar before solidification. Inoculum was prepared by suspending 4 to 5 colonies into 5 ml of normal saline solution and adjusting the turbidity to 0.5 Macfarland turbidity standard tables (1.5×10^8 CFU/ml), after appropriate dilutions, 10^4 CFU/spot was transfered into the surface of dried plate and incubated for 18 hours (24 hours for MRSN studies). The concentration showing no growth of the inoculated culture was recorded as the MIC. Appropriate ATCC standard strains were simultaneously tested and result recorded only when the MIC's against standard antibiotics were within the acceptable range.

S. aureus 25923 = assay type: cell-based, Staphylococcus aureus; details: S. aureus 25923; agar incorporation
Excerpt: as §1, §2, §3

MRSA 33 = assay type: cell-based, Staphylococcus aureus; details: MRSA 33; agar incorporation
Procedure: as §1, §3

S. pneum 6303 = assay type: cell-based, Streptococcus pneumoniae; details: S. pneum 6303; agar incorporation
Excerpt: as §1, §2, §3

S. pneum AB 34 = assay type: cell-based, Streptococcus pneumoniae; details: S. pneum AB 34; agar incorporation
Procedure: as §1, §3

VRE 6A = assay type: cell-based, Enterococcus faecium; details: VRE 6A; agar incorporation
Excerpt: as §1, §2, §3

E. faecalis 29212 = assay type: cell-based, Enterococcus faecalis; details: E. faecalis 29212; agar incorporation
Excerpt: as §1, §2, §3

S. pyogenes 19615 = assay type: cell-based, Streptococcus pyogenes; details: S. pyogenes 19615; agar incorporation
Excerpt: as §1, §2, §3

MRSA 562 = assay type: cell-based, Staphylococcus aureus; details: MRSA 562; agar incorporation; Table 1
Procedure: as §1, §3

Row | MIC (MRSA 15187) [mg/L] | MIC (S. aureus 25923) [mg/L] | MIC (MRSA 33) [mg/L] | MIC (S. pneum 6303) [mg/L] | MIC (S. pneum AB 34) [mg/L] | MIC (VRE 6A) [mg/L] | MIC (E. faecalis 29212) [mg/L] | MIC (S. pyogenes 19615) [mg/L] | MIC (MRSA 562) [mg/L] | SMILES
1 | 8 (≈ 18.5 µM) | 8 (≈ 18.5 µM) | 8 (≈ 18.5 µM) | 8 (≈ 18.5 µM) | 8 (≈ 18.5 µM) | 8 (≈ 18.5 µM) | 8 (≈ 18.5 µM) | 4 (≈ 9.25 µM) | 8 (≈ 18.5 µM) | CC(=O)NC[C@H]1CN(c2ccc(N3CCN(Cc4cccs4)CC3)c(F)c2)C(=O)O1 [Compound No. 12, (S)-N-[[3-[3-Fluoro-4-[N-1[4-(2-thienylmethyl)]piperazinyl]-phenyl]-2-oxo-5-oxazolidinyl]methyl]acetamide]
2 | 8 (≈ 17.5 µM) | 8 (≈ 17.5 µM) | 8 (≈ 17.5 µM) | 4 (≈ 8.76 µM) | 4 (≈ 8.76 µM) | 8 (≈ 17.5 µM) | 8 (≈ 17.5 µM) | 1 (≈ 2.19 µM) | – | CC(=O)NC[C@H]1CN(c2ccc(N3CC4C(C3)C4N(C)C(=O)c3ccoc3)c(F)c2)C(=O)O1 (stereo partly drawn) [Compound No. 32, (S)-N-[[3-[3-Fluoro[4-[3-(1α, 5α, 6α)-6-[N-(3-furoyl)-N-methyl]amino]-3-azabicyclo-[3.1.0]hexane]phenyl]-2-oxo-5-oxazolidinyl]methyl]acetamide]
3 | 4 (≈ 7.47 µM) | 4 (≈ 7.47 µM) | 4 (≈ 7.47 µM) | 8 (≈ 14.9 µM) | 4 (≈ 7.47 µM) | 4 (≈ 7.47 µM) | 4 (≈ 7.47 µM) | 0.5 (≈ 0.934 µM) | – | CC(=O)NC[C@H]1CN(c2ccc(N3C[C@@H]4[C@H](C3)[C@H]4N(C)C(=O)c3ccc(Br)o3)c(F)c2)C(=O)O1 [Compound No. 33, (S)-N-[[3-[3-Fluoro[4-[3-(1α,5α,6α)-6-[N-(5-bromo-2-furoyl)-N-methyl]amino]-3-azabicyclo-[3.1.0]hexane]phenyl]-2-oxo-5-oxazolidinyl]methyl]acetamide]
4 | 1 (≈ 1.98 µM) | 2 (≈ 3.96 µM) | 1 (≈ 1.98 µM) | – | 2 (≈ 3.96 µM) | 4 (≈ 7.91 µM) | 4 (≈ 7.91 µM) | 0.5 (≈ 0.989 µM) | 1 (≈ 1.98 µM) | CC(=O)NC[C@H]1CN(c2ccc(N3CCC(N(C)Cc4ccc([N+](=O)[O-])s4)CC3)c(F)c2)C(=O)O1 [Compound No. 51, (S)-N-[[3-[4-[4-(N-methyl-N-2-thienyl(5-nitro)methyl)-aminopiperidine-1-yl]-3-fluorophenyl]-2oxo-oxazolidin-5-yl]methyl]acetamide]
5 | 2 (≈ 4.35 µM) | 2 (≈ 4.35 µM) | 2 (≈ 4.35 µM) | 8 (≈ 17.4 µM) | 8 (≈ 17.4 µM) | 16 (≈ 34.8 µM) | 8 (≈ 17.4 µM) | 4 (≈ 8.71 µM) | – | CC(=O)NC[C@H]1CN(c2ccc(N3CCN(Cc4ccc(C=NO)o4)CC3)c(F)c2)C(=O)O1 [Compound No. 60, (S)-N-[[3-[3-Fluoro-4-[N-1-[4-(2-furyl-(5-aldoxime)methyl}]piperazinyl]phenyl]-2-oxo-5-oxazolidinyl]methyl]acetamide]
6 | 4 (≈ 8.5 µM) | 8 (≈ 17 µM) | 4 (≈ 8.5 µM) | 4 (≈ 8.5 µM) | 4 (≈ 8.5 µM) | 8 (≈ 17 µM) | 8 (≈ 17 µM) | 0.25 (≈ 0.531 µM) | – | CC(=O)NC[C@H]1CN(c2ccc(N3CC4C(C3)C4N(C)Cc3ccc(C=O)o3)c(F)c2)C(=O)O1 (stereo partly drawn) [Compound No. 72, (S)-N-[[3-[3-Fluoro[4-[3-(1α,5α,6α)-6-[N-(5-formyl-2-furylmethyl)-N-methyl]amino]-3-azabicyclo-[3.1.0]hexane]phenyl]-2-oxo-5-oxazolidinyl]methyl]acetamide]

More lines, now with the values behind:

Row | SMILES | MIC (MRSA 15187) [mg/L] | MIC (S. aureus 25923) [mg/L] | MIC (MRSA 33) [mg/L] | MIC (S. pneum 6303) [mg/L] | MIC (S. pneum AB 34) [mg/L] | MIC (VRE 6A) [mg/L] | MIC (E. faecalis 29212) [mg/L] | MIC (S. pyogenes 19615) [mg/L] | MIC (MRSA 562) [mg/L]
7 | CC(=O)NC[C@H]1CN(c2ccc(N3CCN(C(=O)c4ccco4)CC3)c(F)c2)C(=O)O1 [Compound No. 01, (S)-N-[[3-[3-Fluoro-4-[N-1-[4-(2-furoyl)piperazinyl]]-phenyl]-2-oxo-5-oxazolidinyl]methyl]acetamide] | 2 (≈ 4.65 µM) | 2 (≈ 4.65 µM) | 4 (≈ 9.29 µM) | 2 (≈ 4.65 µM) | 1 (≈ 2.32 µM) | 2 (≈ 4.65 µM) | 2 (≈ 4.65 µM) | 1 (≈ 2.32 µM) | –
8 | CC(=O)NC[C@H]1CN(c2ccc(N3CCN(Cc4ccc(C=O)o4)CC3)c(F)c2)C(=O)O1 [Compound No. 02, (S)-N-[[3-[3-Fluoro-4-[N-1[4-{2-furyl(5-formyl)methyl}]piperazinyl]phenyl]-2-oxo-5-oxazolidinyl]methyl]acetamide] | 2 (≈ 4.5 µM) | 1 (≈ 2.25 µM) | 2 (≈ 4.5 µM) | 4 (≈ 9 µM) | 8 (≈ 18 µM) | 8 (≈ 18 µM) | 8 (≈ 18 µM) | 8 (≈ 18 µM) | 1 (≈ 2.25 µM)
9 | CC(=O)NC[C@H]1CN(c2ccc(N3CCN(C(=O)c4ccc(CCl)o4)CC3)c(F)c2)C(=O)O1 [Compound No. 05, (S)-N-[[3-Fluoro-4-[N-1[4-(5-chloromethyl-2-furoyl)piperazinyl]phenyl]-2-oxo-5-oxazolidinyl]methyl]acetamide] | 4 (≈ 8.35 µM) | 16 (≈ 33.4 µM) | 4 (≈ 8.35 µM) | 4 (≈ 8.35 µM) | 4 (≈ 8.35 µM) | 8 (≈ 16.7 µM) | 8 (≈ 16.7 µM) | 4 (≈ 8.35 µM) | –
10 | CC(=O)NC[C@H]1CN(c2ccc(N3CCN(Cc4ccc(Cl)s4)CC3)c(F)c2)C(=O)O1 [Compound No. 10, (S)-N[[3-[3-Fluoro-4-[N-1[4-{2-thienyl(5-chloro)methyl}]-piperazinyl]phenyl]2-oxo-5-oxazolidinyl]methyl]acetamide] | 4 (≈ 8.57 µM) | 8 (≈ 17.1 µM) | 4 (≈ 8.57 µM) | 4 (≈ 8.57 µM) | 8 (≈ 17.1 µM) | 4 (≈ 8.57 µM) | 8 (≈ 17.1 µM) | 1 (≈ 2.14 µM) | –
11 | CC(=O)NC[C@H]1CN(c2ccc(N3CCN(Cc4cc(Br)cs4)CC3)c(F)c2)C(=O)O1 [Compound No. 14, (S)-N-[[3-[3-Fluoro-4-[N-1[4-{2-thienyl(4-bromo)methyl}]-piperazinyl]phenyl]-2-oxo-5-oxazolidinyl]methyl]acetamide] | 2 (≈ 3.91 µM) | 4 (≈ 7.82 µM) | 2 (≈ 3.91 µM) | 4 (≈ 7.82 µM) | 4 (≈ 7.82 µM) | 2 (≈ 3.91 µM) | 2 (≈ 3.91 µM) | 2 (≈ 3.91 µM) | 2 (≈ 3.91 µM)
12 | CC(=O)NC[C@H]1CN(c2ccc(N3CCN(Cc4ccc([N+](=O)[O-])o4)CC3)c(F)c2)C(=O)O1.O=C(O)CC(O)(CC(=O)O)C(=O)O [Compound No. 17] | 2 | 2 | 2 | 2 | 1 | 4 | 2 | 1 | –
13 | CC(=O)NC[C@H]1CN(c2ccc(N3CCN(Cc4ccc([N+](=O)[O-])s4)CC3)c(F)c2)C(=O)O1 [Compound No. 23, (S)-N[[3-[3-Fluoro-4-[N-1[4-{2-thienyl(5-nitro)methyl}]piperazinyl]phenyl]2-oxo-5-oxazolidinyl]methyl]acetamide] | 8 (≈ 16.8 µM) | 8 (≈ 16.8 µM) | 8 (≈ 16.8 µM) | 8 (≈ 16.8 µM) | 8 (≈ 16.8 µM) | 8 (≈ 16.8 µM) | 8 (≈ 16.8 µM) | 1 (≈ 2.09 µM) | –
14 | COC(=O)Cc1ccc(NC(=O)ON=Cc2ccc(CN3CCN(c4ccc(N5C[C@H](CNC(C)=O)OC5=O)cc4F)CC3)o2)cc1 [Compound No. 61] | 8 (≈ 12.3 µM) | 8 (≈ 12.3 µM) | 8 (≈ 12.3 µM) | 8 (≈ 12.3 µM) | 8 (≈ 12.3 µM) | 8 (≈ 12.3 µM) | 8 (≈ 12.3 µM) | 8 (≈ 12.3 µM) | –
15 | CC(=O)NC[C@H]1CN(c2ccc(N3CC4C(C3)C4N(C)C(=O)c3ccsc3)c(F)c2)C(=O)O1 (stereo partly drawn) [Compound No. 73, (S)-N-[[3-[3-Fluoro[4-[3-(1α,5α,6α)-6-[N-(3-thienoyl)-N-methyl]amino]-3-azabicyclo-[3.1.0]hexane]phenyl]-2-oxo-5-oxazolidinyl]methyl]acetamide] | 8 (≈ 16.9 µM) | 8 (≈ 16.9 µM) | 8 (≈ 16.9 µM) | 4 (≈ 8.46 µM) | 8 (≈ 16.9 µM) | 8 (≈ 16.9 µM) | 8 (≈ 16.9 µM) | 1 (≈ 2.12 µM) | –
